In patent publication US8889677B2, “Substituted triazoles useful as mGlu5 receptor modulators” (Boehringer Ingellheim International GmbH, priority 2012, dated 2014):

molecular target: T1, human recombinant mGluR5 (Homo sapiens, UniProt P41594); experiment: positive modulation of mGluR5, calcium based FLIPR assay in HEK 293 cells; conditions: HEK 293 cell line expressing human recombinant mGluR5; EC50 of the modulation of the glutamate response (glutamate approx. 5% basal stimulation); peak height of Ca release fluorescence signal
T1 construct: expressed in transfected cells; host or cells: HEK 293 cell line cultured with tetracycline, hygromycin and geneticin; tetracycline removed 3-7 days before the assay
T1 sequence (P41594 21-1212): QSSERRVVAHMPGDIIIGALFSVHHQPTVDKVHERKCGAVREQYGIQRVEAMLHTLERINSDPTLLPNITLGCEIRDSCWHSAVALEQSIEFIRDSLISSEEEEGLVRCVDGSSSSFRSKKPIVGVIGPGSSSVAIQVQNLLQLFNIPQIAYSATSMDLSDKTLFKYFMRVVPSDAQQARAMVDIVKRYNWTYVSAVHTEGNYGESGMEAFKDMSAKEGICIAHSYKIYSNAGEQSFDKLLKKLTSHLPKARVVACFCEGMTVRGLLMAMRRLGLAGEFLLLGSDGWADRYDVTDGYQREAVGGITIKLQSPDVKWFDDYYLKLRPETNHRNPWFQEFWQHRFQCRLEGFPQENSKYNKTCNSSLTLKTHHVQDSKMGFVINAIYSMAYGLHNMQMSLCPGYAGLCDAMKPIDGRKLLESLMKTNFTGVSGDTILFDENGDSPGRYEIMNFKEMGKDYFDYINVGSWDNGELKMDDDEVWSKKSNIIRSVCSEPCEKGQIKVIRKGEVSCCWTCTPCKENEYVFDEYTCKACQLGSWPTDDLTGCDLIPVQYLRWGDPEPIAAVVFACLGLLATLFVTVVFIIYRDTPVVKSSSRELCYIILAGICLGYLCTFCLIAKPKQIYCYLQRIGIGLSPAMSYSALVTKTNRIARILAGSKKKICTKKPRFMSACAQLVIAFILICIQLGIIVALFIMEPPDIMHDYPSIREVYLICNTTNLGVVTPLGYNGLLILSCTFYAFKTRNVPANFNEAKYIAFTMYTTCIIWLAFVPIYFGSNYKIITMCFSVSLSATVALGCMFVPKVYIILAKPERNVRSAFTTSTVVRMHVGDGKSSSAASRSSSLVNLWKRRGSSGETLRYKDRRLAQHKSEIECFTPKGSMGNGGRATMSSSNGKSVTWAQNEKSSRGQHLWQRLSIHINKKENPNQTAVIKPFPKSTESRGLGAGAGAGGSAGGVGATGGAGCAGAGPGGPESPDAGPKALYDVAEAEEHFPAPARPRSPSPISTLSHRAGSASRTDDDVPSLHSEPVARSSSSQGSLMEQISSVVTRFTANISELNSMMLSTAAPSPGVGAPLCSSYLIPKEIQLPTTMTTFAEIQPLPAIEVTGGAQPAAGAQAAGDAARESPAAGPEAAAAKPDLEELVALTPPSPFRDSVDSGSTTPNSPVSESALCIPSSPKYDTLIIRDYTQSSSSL
Experimental: The positive modulation of mGluR5 is measured in a HEK 293 cell line expressing human recombinant mGluR5 and is detected with calcium based FLIPR assay. The cells are cultured with DMEM supplemented with 10% FCS, 2 μg/mL tetracycline, 100 μg/mL hygromycin and 500 μg/mL gneticin. The cell culture media is exchanged for tetracycline-free cell culture media 3-7 days before the assay. One day before the assay the cell culture medium is exchanged to DMEM without glutamine and phenol red and supplemented with 10% FCS, 100 μg/mL hygromycin and 500 μg/mL geneticin. On the assay day, the medium of the subconfluent cultures is removed and the cells are detached by addition of 2.5 ml EDTA (0.02%) per 175 cm2 culture flask for 1 minute. The cells are resuspend in Ringer solution (140 mM NaCl, 5 mM KCl, 2.5 mM CaCl2, 1.5 mM MgCl2, 5 mM Glucose, 10 mM Hepes; adjusted to pH 7.4 with NaOH), pooled and Ringer solution added to adjust the volume to 50 mL. The cell suspension is centrifuged for […] at 1500 U/min (425 g). The supernatant is removed and the cells washed a second time with 50 ml fresh Ringer solution and centrifuged again as before. The supernatant is again removed and the pellet resuspended in Ringer solution to 1,000,000 cells/ml (1×10^6 cells/mL). The cells are plated onto BD BioCoat Poly-D-Lysine 384 well plates (20.000 cells/well; 20 μl/well). The lid covered plates are then incubated until use at 37° C./10% CO2. For dye loading, 20 μl of Calcium-4 assay kit solution (prepared according to the manufacturer's description in Ringer solution) are added to the cells and the plates are incubated for 80 min 37° C. and then 10 min at room temperature.
Controls, Compound Dilution and Assay Execution:
Each assay plate contained wells with “high” and “low” controls:
Low controls 1% DMSO/ringer solution+basal glutamate activation (defined as 100% CTL).
High controls 10 μM CDPPB+basal glutamate activation (defined as 200% CTL).
Test compounds are dissolved and diluted in DMSO to 100-fold the desired concentrations. In a second step, the compounds are diluted in Ringer solution such that the compounds are 4-fold more concentrated than the desired final assay concentration. The final DMSO concentration was 1%.
20 μl of each compound solution are then transferred to the assay plate and the Ca2+ kinetic is measured to determine any intrinsic compound activity. After 5 min incubation in the FLIPR device, the second stimulation with 20 μl of glutamate in Ringer solution (glutamate concentration adjusted to approximately 5% basal stimulation of the maximal possible glutamate effect) is added and the kinetic Ca2+ response of the wells was measured for the modulation effect.
The peak height of the Ca release related fluorescence signal (9-66) is used for the EC50. The EC50 of the modulation is calculated over a nonlinear regression with GraphPad Prism (Table 1).

Row | Compound | EC50
1 | COc1nccc(N2CCN(C(=O)Cn3nc(-c4ccc(F)cc4)nc3-c3ccc(F)cc3)CC2)n1 [Example 07.03.19.] | 0.44 µM
2 | O=C(Cn1nc(-c2ccc(F)cc2)nc1-c1ccc(F)cc1)N1CCN(c2ccc(Br)cn2)CC1 [Example 07.03.20.] | 0.467 µM
3 | CN(C)c1nccc(N2CCN(C(=O)Cn3nc(-c4ccc(F)cc4)nc3-c3ccc(F)cc3)CC2)n1 [Example 07.03.22.] | 0.476 µM
4 | CN(C)c1cc(N2CCN(C(=O)Cn3nc(-c4ccc(F)cc4)nc3-c3ccc(F)cc3)CC2)ccn1 [Example 07.03.23.] | 1.01 µM
5 | CCc1cc(N2CCN(C(=O)Cn3nc(-c4ccc(F)cc4)nc3-c3ccc(F)cc3)CC2)nc(Cl)n1 [Example 07.03.27.] | 1.21 µM
6 | COc1ccc(Cl)cc1N1CCN(C(=O)Cn2nc(-c3ccc(F)cc3)nc2-c2ccc(F)cc2)CC1 [Example 07.04.002.] | 2 µM
7 | O=C(Cn1nc(-c2ccc(F)cc2)nc1-c1ccc(F)cc1)N1CCN(c2cccnc2)CC1 [Example 07.04.004.] | 0.6 µM
8 | O=C(Cn1nc(-c2ccc(F)cc2)nc1-c1ccc(F)cc1)N1CCN(c2nccc3ccccc23)CC1 [Example 07.04.006.] | 0.899 µM
9 | N#Cc1ccccc1N1CCN(C(=O)Cn2nc(-c3ccc(F)cc3)nc2-c2ccc(F)cc2)CC1 [Example 07.04.007.] | 1.35 µM
10 | O=C(Cn1nc(-c2ccc(F)cc2)nc1-c1ccc(F)cc1)N1CCN(c2ccccc2O)CC1 [Example 07.04.010.] | 1.2 µM
11 | N#Cc1ccc(N2CCN(C(=O)Cn3nc(-c4ccc(F)cc4)nc3-c3ccc(F)cc3)CC2)nc1 [Example 07.04.11.] | 1.57 µM
12 | O=C(Cn1nc(-c2ccc(F)cc2)nc1-c1ccc(F)cc1)N1CCN(c2ccccc2F)CC1 [Example 07.04.13.] | 1.21 µM
13 | COc1cccc(N2CCN(C(=O)Cn3nc(-c4ccc(F)cc4)nc3-c3ccc(F)cc3)CC2)c1 [Example 07.04.014.] | 0.467 µM
14 | COc1cnnc(N2CCN(C(=O)Cn3nc(-c4ccc(F)cc4)nc3-c3ccc(F)cc3)CC2)c1 [Example 07.04.017.] | 0.421 µM
15 | COc1cc(N2CCN(C(=O)Cn3nc(-c4ccccc4)nc3-c3ccccc3)CC2)ncn1 [Example 07.04.019.] | 1.09 µM
16 | COc1ccc(-c2nc(C3CCCCC3)n(CC(=O)N3CCN(c4cc(C)ccn4)CC3)n2)c(F)c1 [Example 07.04.021.] | 0.647 µM
17 | COc1ccc(-c2nc(C3CCCCC3)n(CC(=O)N3CCN(c4ccccn4)CC3)n2)c(F)c1 [Example 07.04.022.] | 1.04 µM
18 | Cc1ccnc(N2CCN(C(=O)Cn3nc(-c4cccc(F)c4)nc3-c3cccc(F)c3)CC2)c1 [Example 07.04.024.] | 0.945 µM
19 | COc1cccc(-c2nc(-c3ccc(F)cc3)nn2CC(=O)N2CCN(c3cc(C)ccn3)CC2)c1 [Example 07.04.025.] | 0.868 µM
20 | O=C(Cn1nc(-c2ccc(F)cc2)nc1C1CCCCC1)N1CCN(c2ccccn2)CC1 [Example 07.04.029.] | 1.56 µM
21 | Cc1ccnc(N2CCN(C(=O)Cn3nc(-c4ccc(F)cc4)nc3C3CCCCC3)CC2)c1 [Example 07.04.030.] | 1.42 µM
22 | O=C(Cn1nc(-c2ccc(F)cc2)nc1C1CCCCC1)N1CCN(c2ncccn2)CC1 [Example 07.04.031.] | 0.661 µM

Now those with a lower EC50, led by results:

Row | EC50 | Compound
23 | 0.278 µM | O=C(Cn1nc(-c2ccc(F)cc2)nc1-c1ccc(F)cc1)N1CCN(c2nccc(C(F)(F)F)n2)CC1 [Example 07.03.21.]
24 | 0.254 µM | COc1cc(N2CCN(C(=O)Cn3nc(-c4ccc(F)cc4)nc3-c3ccc(F)cc3)CC2)ccn1 [Example 07.03.24.]
25 | 0.177 µM | CCc1cc(N2CCN(C(=O)Cn3nc(-c4ccc(F)cc4)nc3-c3ccc(F)cc3)CC2)ncn1 [Example 07.03.26.]
26 | 0.319 µM | Nc1cc(N2CCN(C(=O)Cn3nc(-c4ccc(F)cc4)nc3-c3ccc(F)cc3)CC2)ncn1 [Example 07.03.28.]
27 | 0.025 µM | COc1cnc(N2CCN(C(=O)Cn3nc(-c4ccc(F)cc4)nc3-c3ccc(F)cc3)CC2)nc1 [Example 07.04.001., 2-(3,5-Bis-(4-fluoro-phenyl)-(1,2,4)triazol-1-yl)-1-(4-(5-methoxy-pyrimidin-2-yl)-piperazin-1-yl)-ethanone]
28 | 0.259 µM | O=C(Cn1nc(-c2ccc(F)cc2)nc1-c1ccc(F)cc1)N1CCN(c2ccncn2)CC1 [Example 07.04.003.]
29 | 0.4 µM | O=C(Cn1nc(-c2ccc(F)cc2)nc1-c1ccc(F)cc1)N1CCN(c2cc3ccccc3cn2)CC1 [Example 07.04.005.]
30 | 0.117 µM | O=C(Cn1nc(-c2ccc(F)cc2)nc1-c1ccc(F)cc1)N1CCN(c2cnccn2)CC1 [Example 07.04.008.]
31 | 0.166 µM | O=C(Cn1nc(-c2ccc(F)cc2)nc1-c1ccc(F)cc1)N1CCN(c2ccc(Cl)nn2)CC1 [Example 07.04.009.]
32 | 0.176 µM | O=C(Cn1nc(-c2ccc(F)cc2)nc1-c1ccc(F)cc1)N1CCN(c2ccc(Cl)cn2)CC1 [Example 07.04.12.]
33 | 0.364 µM | O=C(Cn1nc(-c2ccc(F)cc2)nc1-c1ccc(F)cc1)N1CCN(c2cc(Cl)ccn2)CC1 [Example 07.04.015.]
34 | 0.062 µM | COc1cc(N2CCN(C(=O)Cn3nc(-c4ccc(F)cc4)nc3-c3ccc(F)cc3)CC2)ncn1 [Example 07.04.016.]
35 | 0.2 µM | O=C(Cn1nc(-c2ccccc2)nc1-c1ccccc1)N1CCN(c2ncccn2)CC1 [Example 07.04.018.]
36 | 0.388 µM | COc1ccc(-c2nc(C3CCCCC3)n(CC(=O)N3CCN(c4ncccn4)CC3)n2)c(F)c1 [Example 07.04.020.]
37 | 0.37 µM | O=C(Cn1nc(-c2cccc(F)c2)nc1-c1cccc(F)c1)N1CCN(c2ncccn2)CC1 [Example 07.04.023.]
38 | 0.236 µM | COc1cccc(-c2nc(-c3ccc(F)cc3)nn2CC(=O)N2CCN(c3ncccn3)CC2)c1 [Example 07.04.026.]

Row | EC50 | Compound
39 | 0.038 µM | COc1cccc(-c2nc(-c3ccc(F)cc3)n(CC(=O)N3CCN(c4cc(C)ccn4)CC3)n2)c1 [Example 07.04.027.]
40 | 0.03 µM | COc1cccc(-c2nc(-c3ccc(F)cc3)n(CC(=O)N3CCN(c4ncccn4)CC3)n2)c1 [Example 07.04.028.]
41 | 0.039 µM | COc1ccc(-c2nc(-c3ccc(F)cc3)n(CC(=O)N3CCN(c4cc(C)ccn4)CC3)n2)cc1 [Example 07.04.032.]
42 | 0.037 µM | COc1ccc(-c2nc(-c3ccc(F)cc3)n(CC(=O)N3CCN(c4ncccn4)CC3)n2)cc1 [Example 07.04.033.]
43 | 0.052 µM | COc1ccc(-c2nc(-c3ccc(F)cc3)n(CC(=O)N3CCN(c4cc(OC)ncn4)CC3)n2)cc1 [Example 07.04.034.]
44 | 0.04 µM | COc1ccc(-c2nc(-c3ccc(F)cc3)n(CC(=O)N3CCN(c4ccccn4)CC3)n2)cc1 [Example 07.04.035.]
45 | 0.032 µM | COc1ccc(-c2nc(-c3ccc(F)cc3)n(CC(=O)N3CCN(c4ncc(Br)cn4)CC3)n2)cc1 [Example 07.04.036.]
46 | 0.114 µM | COc1ccc(-c2nc(-c3ccc(F)cc3)n(CC(=O)N3CCN(c4cccnn4)CC3)n2)cc1 [Example 07.04.037.]
47 | 0.023 µM | COc1ccc(-c2nc(-c3ccc(F)cc3)n(CC(=O)N3CCN(c4ncc(Cl)cn4)CC3)n2)cc1 [Example 07.04.038.]
48 | 0.03 µM | COc1ccc(-c2nc(-c3ccc(F)cc3)n(CC(=O)N3CCN(c4cc(OC)ccn4)CC3)n2)cc1 [Example 07.04.039.]
49 | 0.033 µM | COc1ccc(-c2nc(-c3ccc(F)cc3)nn2CC(=O)N2CCN(c3ncccn3)CC2)cc1 [Example 07.04.040.]
50 | 0.113 µM | COc1ccc(-c2nc(-c3ccc(F)cc3)nn2CC(=O)N2CCN(c3cc(C)ccn3)CC2)cc1 [Example 07.04.041.]
51 | 0.148 µM | COc1ccc(-c2nc(-c3ccc(F)cc3)nn2CC(=O)N2CCN(c3cc(OC)ncn3)CC2)cc1 [Example 07.04.042.]
52 | 0.334 µM | COc1ccc(-c2nc(-c3ccc(F)cc3)nn2CC(=O)N2CCN(c3cccnn3)CC2)cc1 [Example 07.04.043.]
53 | 0.088 µM | COc1ccc(-c2nc(-c3ccc(F)cc3)nn2CC(=O)N2CCN(c3ncc(Br)cn3)CC2)cc1 [Example 07.04.044.]
54 | 0.08 µM | COc1ccc(-c2nc(-c3ccc(F)cc3)nn2CC(=O)N2CCN(c3ncc(Cl)cn3)CC2)cc1 [Example 07.04.045.]
